Test results taken from patent US12558356B2, “Immunophilin binding agents and uses thereof” (The Regents of the University of California, priority 2019, dated 2026).
Like-named read-outs stand apart in the source and are kept apart here.

How the values were obtained:
[1] = target: FKBP12 (Homo sapiens (Human), UniProt P62942); test: FKBP12 binding assay (fluorescence polarization)
[2] = system: p-S6 level in MCF7 cells; test: Western blot of p-S6 level in MCF7 cells after combination treatment with Rapa/Rapalink and candidate compound (blockade score); format: cell-based; details: 24 h, p-S6 level as fraction of DMSO control; for Rapamycin Blockade: 10 nM Rapa + 10 μM candidate compound; for RapaLink-1 Blockade: 10 nM Rapalink + 10 μM candidate compound

FKBP12, sequence (P62942 whole entry): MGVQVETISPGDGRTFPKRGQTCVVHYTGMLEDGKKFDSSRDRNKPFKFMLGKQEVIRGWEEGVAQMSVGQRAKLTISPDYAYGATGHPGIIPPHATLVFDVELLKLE

| Compound | Kd ([1]; read-out: Kd FKBP12) [nM] | Rapamycin Blockade [2] | RapaLink-1 Blockade [2] | Kd [1] [nM] |
| --- | --- | --- | --- | --- |
| CO[C@H]1C/C(C)=C/[C@@H](CCCC(=O)O)C(=O)C[C@H](O)[C@@H](C)[C@@H](/C(C)=C/[C@@H]2CC[C@@H](O)[C@H](OC)C2)OC(=O)[C@@H]2CCCCN2C(=O)C(=O)[C@]2(O)O[C@H]([C@@H](OC)C1)[C@@H](OC)C[C@H]2C [ZZY05-020] | 1.49 | 2 (40%-70%) | 0 (<20%) | – |
| CCC(C)(C)C(=O)C(=O)N1CCCC[C@H]1C(=O)O[C@H](CCc1ccc(OC)c(OC)c1)c1cccc(NC(=O)C[N+](C)(C)C)c1 [ZZY01-025] | 95 | 1 (20-40%) | – | – |
| CO[C@H]1C/C(C)=C/[C@@H](CCCc2cc[n+]([O-])cc2)C(=O)C[C@H](O)[C@@H](C)[C@@H](/C(C)=C/[C@@H]2CC[C@@H](O)[C@H](OC)C2)OC(=O)[C@@H]2CCCCN2C(=O)C(=O)[C@]2(O)O[C@H]([C@@H](OC)C1)[C@@H](OC)C[C@H]2C [ZZY05-086] | – | – | 3 (>70%) | 1.6 |
| CCC(C)(C)C(=O)C(=O)N1CCCC[C@H]1C(=O)O[C@H](CCc1ccc(OC)c(OC)c1)c1cccc(NC(=O)CNN)c1 [ZZY01-070] | 21 | 1 (20-40%) | – | – |
| CO[C@H]1C/C(C)=C/[C@@H](CCCSCCN(C)C)C(=O)C[C@H](O)[C@@H](C)[C@@H](/C(C)=C/[C@@H]2CC[C@@H](O)[C@H](OC)C2)OC(=O)[C@@H]2CCCCN2C(=O)C(=O)[C@]2(O)O[C@H]([C@@H](OC)C1)[C@@H](OC)C[C@H]2C [ZZY05-013] | – | 3 (>70%) | 3 (>70%) | 1.36 |
| CCC(C)(C)C(=O)C(=O)N1CCCC[C@H]1C(=O)O[C@H](CCc1ccc(OC)c(OC)c1)c1cccc(N(CC(=O)O)CC(=O)O)c1 [ZZY01-060B] | 75 | 1 (20-40%) | – | – |
| CO[C@H]1C/C(C)=C/[C@@H](CCCC(=O)Nc2ccccn2)C(=O)C[C@H](O)[C@@H](C)[C@@H](/C(C)=C/[C@@H]2CC[C@@H](O)[C@H](OC)C2)OC(=O)[C@@H]2CCCCN2C(=O)C(=O)[C@]2(O)O[C@H]([C@@H](OC)C1)[C@@H](OC)C[C@H]2C [ZZY05-064] | 0.2 | – | 3 (>70%) | – |
| tacrolimus [FK506, reference compound] | – | 3 (>70%) | 3 (>70%) | – |
| CCC(C)(C)C(=O)C(=O)N1CCCC[C@H]1C(=O)O[C@H](CCc1ccc(OC)c(OC)c1)c1cccc(NC(=O)CN2CCN(C)CC2)c1 [ZZY01-072] | 12.5 | 3 (>70%) | – | – |
| CCC(C)(C)C(=O)C(=O)N1CCCC[C@H]1C(=O)O[C@H](CCc1ccc(OC)c(OC)c1)c1cccc(OCC(=O)O)c1 [ZZY01-041] | 38 | 0 (<20%) | – | – |
| CO[C@H]1C/C(C)=C/[C@@H](C/C=C/C(=O)O)C(=O)C[C@H](O)[C@@H](C)[C@@H](/C(C)=C/[C@@H]2CC[C@@H](O)[C@H](OC)C2)OC(=O)[C@@H]2CCCCN2C(=O)C(=O)[C@]2(O)O[C@H]([C@@H](OC)C1)[C@@H](OC)C[C@H]2C [ZZY05-012] | – | 0 (<20%) | 0 (<20%) | 0.39 |
| CCC(C)(C)C(=O)C(=O)N1CCCC[C@H]1C(=O)O[C@H](CCc1ccc(OC)c(OC)c1)c1cccc(NC(=O)CN=[N+]=[N-])c1 [ZZY02-096] | 6 | 2 (40%-70%) | – | – |
| CCC(C)(C)C(=O)C(=O)N1CCCC[C@H]1C(=O)O[C@H](CCc1ccc(OC)c(OC)c1)c1cccc(NCC(=O)O)c1 [ZZY01-060A] | – | 0 (<20%) | – | – |
| CO[C@H]1C/C(C)=C/[C@@H](C/C=C/c2ccncc2)C(=O)C[C@H](O)[C@@H](C)[C@@H](/C(C)=C/[C@@H]2CC[C@@H](O)[C@H](OC)C2)OC(=O)[C@@H]2CCCCN2C(=O)C(=O)[C@]2(O)O[C@H]([C@@H](OC)C1)[C@@H](OC)C[C@H]2C [ZZY05-050] | – | – | 3 (>70%) | 3.6 |
| CCC(C)(C)C(=O)C(=O)N1CCCC[C@H]1C(=O)O[C@H](CCc1ccc(OC)c(OC)c1)c1cccc(N)c1 [SLF, reference compound] | – | 3 (>70%) | 0 (<20%) | – |
| CCC(C)(C)C(=O)C(=O)N1CCCC[C@H]1C(=O)O[C@H](CCc1ccc(OC)c(OC)c1)c1cccc(NC(=O)CN(C)C)c1 [ZZY01-044] | 12.7 | 3 (>70%) | – | – |
| CCC(C)(C)C(=O)C(=O)N1CCCC[C@H]1C(=O)O[C@H](CCc1ccc(OC)c(OC)c1)c1cccc(NC(=O)CCOCCOCCN)c1 [ZZY03-077] | 43.7 | 3 (>70%) | – | – |
| CO[C@H]1C/C(C)=C/[C@@H](CCCSCCN)C(=O)C[C@H](O)[C@@H](C)[C@@H](/C(C)=C/[C@@H]2CC[C@@H](O)[C@H](OC)C2)OC(=O)[C@@H]2CCCCN2C(=O)C(=O)[C@]2(O)O[C@H]([C@@H](OC)C1)[C@@H](OC)C[C@H]2C [ZZY05-011] | – | 3 (>70%) | 3 (>70%) | 0.69 |
